Assay results: PubChem BioAssay (NCI)
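Each compound was tested at five concentrations against cells in 96-well plates for 48 hours. TGI marks complete inhibition of growth.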

Tests used:
Assay in all cases: NCI-60 cell line screen, 48 h
786-0 renal = tested on: 786-0 renal
A498 renal = tested on: A498 renal
A549 NSCLC = tested on: A549 NSCLC
ACHN renal = tested on: ACHN renal
BT-549 breast = tested on: BT-549 breast
CAKI-1 renal = tested on: CAKI-1 renal
CCRF-CEM leukemia = tested on: CCRF-CEM leukemia
COLO 205 colon = tested on: COLO 205 colon
DU-145 prostate = tested on: DU-145 prostate
EKVX NSCLC = tested on: EKVX NSCLC
HCC-2998 colon = tested on: HCC-2998 colon
HCT-116 colon = tested on: HCT-116 colon
HCT-15 colon = tested on: HCT-15 colon
HL-60(TB) leukemia = tested on: HL-60(TB) leukemia
HOP-62 NSCLC = tested on: HOP-62 NSCLC
HOP-92 NSCLC = tested on: HOP-92 NSCLC
HS 578T breast = tested on: HS 578T breast
HT29 colon = tested on: HT29 colon
IGROV1 ovarian = tested on: IGROV1 ovarian
K-562 leukemia = tested on: K-562 leukemia
KM12 colon = tested on: KM12 colon
LOX IMVI melanoma = tested on: LOX IMVI melanoma
M14 melanoma = tested on: M14 melanoma
MALME-3M melanoma = tested on: MALME-3M melanoma
MCF7 breast = tested on: MCF7 breast
MDA-MB-231 breast = tested on: MDA-MB-231 breast
MDA-MB-435 = tested on: MDA-MB-435
MDA-N = tested on: MDA-N
MOLT-4 leukemia = tested on: MOLT-4 leukemia
NCI-H226 lung = tested on: NCI-H226 lung
NCI-H23 lung = tested on: NCI-H23 lung
NCI-H460 lung = tested on: NCI-H460 lung
NCI-H522 lung = tested on: NCI-H522 lung
NCI/ADR-RES ovarian = tested on: NCI/ADR-RES ovarian
OVCAR-3 ovarian = tested on: OVCAR-3 ovarian
OVCAR-4 ovarian = tested on: OVCAR-4 ovarian
OVCAR-5 ovarian = tested on: OVCAR-5 ovarian
OVCAR-8 ovarian = tested on: OVCAR-8 ovarian
PC-3 prostate = tested on: PC-3 prostate
RPMI-8226 leukemia = tested on: RPMI-8226 leukemia
RXF 393 renal = tested on: RXF 393 renal
SF-268 CNS = tested on: SF-268 CNS
SF-295 CNS = tested on: SF-295 CNS
SF-539 CNS = tested on: SF-539 CNS
SK-MEL-2 melanoma = tested on: SK-MEL-2 melanoma
SK-MEL-28 melanoma = tested on: SK-MEL-28 melanoma
SK-MEL-5 melanoma = tested on: SK-MEL-5 melanoma
SK-OV-3 ovarian = tested on: SK-OV-3 ovarian
SN12C renal = tested on: SN12C renal
SNB-19 CNS = tested on: SNB-19 CNS
SNB-75 CNS = tested on: SNB-75 CNS
SW-620 colon = tested on: SW-620 colon
T-47D breast = tested on: T-47D breast
TK-10 renal = tested on: TK-10 renal
U251 CNS = tested on: U251 CNS
UACC-257 melanoma = tested on: UACC-257 melanoma
UACC-62 melanoma = tested on: UACC-62 melanoma
UO-31 renal = tested on: UO-31 renal
SR leukemia = tested on: SR leukemia

Structure (SMILES): CC(Cl)CN1c2ccccc2Sc2ccc(Cl)cc21 (stereo not given)
- TGI (786-0 renal): > 10 µM
- TGI (A498 renal): > 10 µM
- TGI (A549 NSCLC): > 10 µM
- TGI (ACHN renal): > 10 µM
- TGI (BT-549 breast): > 10 µM
- TGI (CAKI-1 renal): > 10 µM
- TGI (CCRF-CEM leukemia): > 10 µM
- TGI (COLO 205 colon): > 10 µM
- TGI (DU-145 prostate): > 10 µM
- TGI (EKVX NSCLC): > 10 µM
- TGI (HCC-2998 colon): > 10 µM
- TGI (HCT-116 colon): > 10 µM
- TGI (HCT-15 colon): > 10 µM
- TGI (HL-60(TB) leukemia): > 10 µM
- TGI (HOP-62 NSCLC): > 10 µM
- TGI (HOP-92 NSCLC): > 10 µM
- TGI (HS 578T breast): > 10 µM
- TGI (HT29 colon): > 10 µM
- TGI (IGROV1 ovarian): > 10 µM
- TGI (K-562 leukemia): > 10 µM
- TGI (KM12 colon): > 10 µM
- TGI (LOX IMVI melanoma): > 10 µM
- TGI (M14 melanoma): > 10 µM
- TGI (MALME-3M melanoma): > 10 µM
- TGI (MCF7 breast): > 10 µM
- TGI (MDA-MB-231 breast): > 10 µM
- TGI (MDA-MB-435): > 10 µM
- TGI (MDA-N): > 10 µM
- TGI (MOLT-4 leukemia): > 10 µM
- TGI (NCI-H226 lung): > 10 µM
- TGI (NCI-H23 lung): > 10 µM
- TGI (NCI-H460 lung): > 10 µM
- TGI (NCI-H522 lung): > 10 µM
- TGI (NCI/ADR-RES ovarian): > 10 µM
- TGI (OVCAR-3 ovarian): > 10 µM
- TGI (OVCAR-4 ovarian): > 10 µM
- TGI (OVCAR-5 ovarian): > 10 µM
- TGI (OVCAR-8 ovarian): > 10 µM
- TGI (PC-3 prostate): > 10 µM
- TGI (RPMI-8226 leukemia): > 10 µM
- TGI (RXF 393 renal): > 10 µM
- TGI (SF-268 CNS): > 10 µM
- TGI (SF-295 CNS): > 10 µM
- TGI (SF-539 CNS): > 10 µM
- TGI (SK-MEL-2 melanoma): > 10 µM
- TGI (SK-MEL-28 melanoma): > 10 µM
- TGI (SK-MEL-5 melanoma): > 10 µM
- TGI (SK-OV-3 ovarian): > 10 µM
- TGI (SN12C renal): > 10 µM
- TGI (SNB-19 CNS): > 10 µM
- TGI (SNB-75 CNS): > 10 µM
- TGI (SW-620 colon): > 10 µM
- TGI (T-47D breast): > 10 µM
- TGI (TK-10 renal): > 10 µM
- TGI (U251 CNS): > 10 µM
- TGI (UACC-257 melanoma): > 10 µM
- TGI (UACC-62 melanoma): > 10 µM
- TGI (UO-31 renal): > 10 µM

Structure (SMILES): O=c1cc(CF)[nH]c(=S)[nH]1
- TGI (786-0 renal): > 100 µM
- TGI (A498 renal): > 100 µM
- TGI (A549 NSCLC): > 100 µM
- TGI (ACHN renal): > 100 µM
- TGI (BT-549 breast): > 100 µM
- TGI (CAKI-1 renal): > 100 µM
- TGI (CCRF-CEM leukemia): > 100 µM
- TGI (DU-145 prostate): > 100 µM
- TGI (EKVX NSCLC): > 100 µM
- TGI (HCC-2998 colon): > 100 µM
- TGI (HCT-116 colon): > 100 µM
- TGI (HCT-15 colon): > 100 µM
- TGI (HOP-62 NSCLC): > 100 µM
- TGI (HOP-92 NSCLC): > 100 µM
- TGI (HS 578T breast): > 100 µM
- TGI (HT29 colon): > 100 µM
- TGI (IGROV1 ovarian): > 100 µM
- TGI (K-562 leukemia): > 100 µM
- TGI (KM12 colon): > 100 µM
- TGI (LOX IMVI melanoma): > 100 µM
- TGI (M14 melanoma): > 100 µM
- TGI (MALME-3M melanoma): > 100 µM
- TGI (MDA-MB-231 breast): > 100 µM
- TGI (MDA-MB-435): > 100 µM
- TGI (MDA-N): > 100 µM
- TGI (MOLT-4 leukemia): > 100 µM
- TGI (NCI-H226 lung): > 100 µM
- TGI (NCI-H23 lung): > 100 µM
- TGI (NCI-H460 lung): > 100 µM
- TGI (NCI-H522 lung): > 100 µM
- TGI (NCI/ADR-RES ovarian): > 100 µM
- TGI (OVCAR-3 ovarian): > 100 µM
- TGI (OVCAR-4 ovarian): > 100 µM
- TGI (OVCAR-5 ovarian): > 100 µM
- TGI (OVCAR-8 ovarian): > 100 µM
- TGI (PC-3 prostate): > 100 µM
- TGI (RXF 393 renal): > 100 µM
- TGI (SF-268 CNS): > 100 µM
- TGI (SF-295 CNS): > 100 µM
- TGI (SK-MEL-28 melanoma): > 100 µM
- TGI (SK-MEL-5 melanoma): > 100 µM
- TGI (SN12C renal): > 100 µM
- TGI (SNB-19 CNS): > 100 µM
- TGI (SNB-75 CNS): > 100 µM
- TGI (SR leukemia): > 100 µM
- TGI (SW-620 colon): > 100 µM
- TGI (T-47D breast): > 100 µM
- TGI (TK-10 renal): > 100 µM
- TGI (U251 CNS): > 100 µM
- TGI (UACC-257 melanoma): > 100 µM
- TGI (UACC-62 melanoma): > 100 µM
- TGI (UO-31 renal): > 100 µM
